Data on five molecules can be found in US8207163B2, “Compositions, synthesis, and methods of using piperazine based antipsychotic agents” (Reviva Pharmaceuticals, Inc., priority 2008, dated 2012).

Counter-ions that a name gives are not always drawn.

For test [1], the target named is T1, dopamine D2S receptor (human recombinant expressed in CHO cells) (Homo sapiens, UniProt P14416).
T1 construct: expressed in transfected cells; host or cells: CHO cells
As to the kind of experiment: Dopamine, D2S (human recombinant) radioligand binding assay, [3H]Spiperone. The note with it: for IC50: six concentrations 0.5-1000 nM. As to the method:
The piperazine derivatives comprising Formulae (I)-(X) described in this invention were tested in the in vitro pharmacological assays to evaluate their activities for dopamine, D2S, serotonin, 5-HT1A and serotonin, 5-HT2A receptors. The in vitro assay protocols and literature references are described herein. • Dopamine, D2S (human recombinant) binding assay: • Materials and Methods: [table] The reactions were carried out in 50 mM TRIS-Hal (pH 7.4) containing 120 mM NaCl, 5 mM KCl, 5 mM MgCl2, 1 mM EDTA for 60 minutes at 25 C. The reaction was terminated by rapid vacuum filtration onto glass fiber filters. Radioactivity trapped onto the filters was determined and compared to control values in order to ascertain any interactions of test compounds with the cloned dopamine—D2 short binding site (Literature Reference: Jarvis, K. R. et al. Journal of Receptor Research 1993, 13(1-4), 573-590; Gundlach, A. L. et al. Life Sciences 1984, 35, 1981-1988.) • Serotonin, 5HT1A (human recombinant) binding assay: • Materials and Methods: The radioligand binding assays for dopamine-D2S, serotonin-5HT1A and serotonin-5HT2A were carried out at six different concentrations and the test concentrations were 0.5 nM, 1 nM, 10 nm, 100 nM, 300 nM and 1000 nM.

Test [2] has as its target T2, serotonin 5-HT2A receptor (Human Cortex) (Homo sapiens, UniProt P28223).
T2 construct: Receptor Source: Human Cortex; from tissue; host or cells: human cortex
Kind of test: Serotonin, 5HT2A (human) radioligand binding assay, [3H]-Ketanserin. Conditions: for IC50: six concentrations 0.5-1000 nM. As to the method: (§1) The reactions were carried out in 50 mM TRIS-Hal (pH 7.4) containing 10 mM MgSO4, 0.5 mM EDTA and 0.1% Ascorbic acid at room temperature for 1 hour. The reaction was terminated by rapid vacuum filtration onto glass fiber filters. Radioactivity trapped onto the filters was determined and compared to control values in order to ascertain any interactions of test compounds with the cloned serotonin—5HT1A binding site (Literature Reference: Hoyer, D. et al. Eur. Journal Pharmacol. 1985, 118, 13-23; Schoeffier, P. and Hoyer, D. Naunyn-Schmiedeberg's Arch. Pharmac. 1989, 340, 135-138) • Serotonin, 5HT2A (human) binding assay: • Materials and Methods: • Receptor Source: Human Cortex • Radioligand: [^3H]-Ketanserin (60-90 Ci/mmol) • Control Compound: Ketanserin • Incubation Conditions:
The reactions were carried out in 50 mM TRIS-Hal (pH 7.6) at room temperature for 90 minutes. The reaction was terminated by rapid vacuum filtration onto glass fiber filters. Radioactivity trapped onto the filters was determined and compared to control values in order to ascertain any interactions of test compounds with the serotonin—5HT2A binding site (Literature Reference: Leysen, J. E. et al. Mol. Pharmacol. 1982, 21, 301-314; Martin, G. R. and Humphrey, P. P. A. Neuropharmacol. 1994, 33(3/4), 261-273.)
(§2) The radioligand binding assays for dopamine-D2S, serotonin-5HT1A and serotonin-5HT2A were carried out at six different concentrations and the test concentrations were 0.5 nM, 1 nM, 10 nm, 100 nM, 300 nM and 1000 nM.

Test [3] addresses T3, serotonin 5-HT1A receptor (human recombinant expressed in HEK-293 cells) (Homo sapiens, UniProt P08908).
T3 construct: expressed in transfected cells; host or cells: HEK-293 cells (from the result head)
T3 sequence (P08908 1-422): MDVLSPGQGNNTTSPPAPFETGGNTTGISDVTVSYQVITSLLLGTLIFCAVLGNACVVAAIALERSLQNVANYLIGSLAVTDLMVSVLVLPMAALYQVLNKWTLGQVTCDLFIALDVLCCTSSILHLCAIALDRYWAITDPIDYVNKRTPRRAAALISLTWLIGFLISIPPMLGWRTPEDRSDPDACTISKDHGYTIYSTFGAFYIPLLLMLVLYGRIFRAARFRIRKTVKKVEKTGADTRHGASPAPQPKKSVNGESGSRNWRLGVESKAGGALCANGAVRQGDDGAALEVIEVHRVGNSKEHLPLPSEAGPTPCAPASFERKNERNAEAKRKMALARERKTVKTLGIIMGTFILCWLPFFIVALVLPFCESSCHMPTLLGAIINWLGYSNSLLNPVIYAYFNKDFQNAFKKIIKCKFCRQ
As to the kind of experiment: Serotonin, 5HT1A (human recombinant) radioligand binding assay, [3H]-8-OH-DPAT. Conditions: human recombinant in HEK-293 cells; for IC50: six concentrations 0.5-1000 nM. As to the method:
as §1, §2

T1 sequence (P14416 1-414 isoform P14416-2): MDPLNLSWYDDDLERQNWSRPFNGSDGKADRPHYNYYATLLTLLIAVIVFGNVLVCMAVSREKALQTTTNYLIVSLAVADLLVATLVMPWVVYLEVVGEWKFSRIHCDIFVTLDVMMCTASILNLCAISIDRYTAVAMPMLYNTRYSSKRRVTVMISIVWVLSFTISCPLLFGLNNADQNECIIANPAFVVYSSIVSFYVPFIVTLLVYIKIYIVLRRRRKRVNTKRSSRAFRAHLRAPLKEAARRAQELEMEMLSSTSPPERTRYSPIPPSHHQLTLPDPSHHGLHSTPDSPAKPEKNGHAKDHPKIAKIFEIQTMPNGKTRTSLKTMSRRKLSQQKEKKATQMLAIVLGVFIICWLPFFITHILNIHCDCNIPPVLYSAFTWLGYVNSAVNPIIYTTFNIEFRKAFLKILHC
T2 sequence (P28223 whole entry): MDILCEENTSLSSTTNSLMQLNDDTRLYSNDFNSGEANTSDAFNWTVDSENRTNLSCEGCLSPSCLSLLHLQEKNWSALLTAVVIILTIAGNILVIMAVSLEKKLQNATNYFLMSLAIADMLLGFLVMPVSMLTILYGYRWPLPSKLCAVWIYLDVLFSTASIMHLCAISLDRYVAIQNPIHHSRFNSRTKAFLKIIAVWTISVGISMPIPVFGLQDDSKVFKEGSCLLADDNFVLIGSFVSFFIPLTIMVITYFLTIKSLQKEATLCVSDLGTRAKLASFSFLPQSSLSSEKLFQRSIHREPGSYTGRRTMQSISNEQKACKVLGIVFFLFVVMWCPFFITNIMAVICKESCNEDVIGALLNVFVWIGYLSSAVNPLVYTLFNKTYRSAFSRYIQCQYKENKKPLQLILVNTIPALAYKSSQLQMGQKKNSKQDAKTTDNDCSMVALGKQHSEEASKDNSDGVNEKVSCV

As to `O=C(CCCN1CCN(c2cccc(Cl)c2Cl)CC1)Nc1ccc2c(c1)NC(=O)CO2` [Compound 5b, 4-(4-(2,3-Dichlorophenyl)piperazin-1-yl)-N-(3-oxo-3,4-dihydro-2H-benzo[b][1,4]oxazin-6-yl)butanamide hydrochloride], the inhibitory constant (Ki) – broadly, the equilibrium dissociation constant of an inhibitor or competing ligand from its target – came to 2.89 nM in test [1], 57.4 nM in test [2] and 11.4 nM in test [3]. Further, the IC50 (usually the midpoint of a concentration-inhibition curve) in test [1] amounted to 7.89 nM; in test [2], 110 nM; in test [3] it was 18.5 nM.

For `CCOC(=O)CCCOc1ccccc1N1CCN(CCCCOc2ccc3c(c2)NC(=O)CO3)CC1` [Compound 18a, Ethyl 4-(2-(4-(4-(3-oxo-3,4-dihydro-2H-benzo[b][1,4]oxazin-6-yloxy)butyl)piperazin-1-yl)phenoxy)butanoate hydrochloride], the inhibitory constant (Ki) came to 6.77 nM in test [1], 282 nM in test [2] and 10.2 nM in test [3]. For the same molecule, the IC50 was found to be 19.2 nM in test [1], 572 nM in test [2] and 16.7 nM in test [3].

`CCOC(=O)C(C)(C)CCOc1ccccc1N1CCN(CCCCOc2ccc3c(c2)NC(=O)CO3)CC1` [Compound 18b, Ethyl 2,2-dimethyl-4-(2-(4-(4-(3-oxo-3,4-dihydro-2H-benzo[b][1,4]oxazin-6-yloxy)butyl)piperazin-1-yl)phenoxy)butanoate hydrochloride]: the inhibition constant (Ki) in test [1] is 50.2 nM; in test [2] it was 340 nM; in test [3], 3.3 nM. For the same molecule, the IC50 worked out at 147 nM in test [1], 622 nM in test [2] and 5.44 nM in test [3].

Turning to `CCOC(=O)C(C)(C)Oc1ccccc1N1CCN(CCCCOc2ccc3c(c2)NC(=O)CO3)CC1` [Compound 18c, Ethyl 2-methyl-2-(2-(4-(4-(3-oxo-3,4-dihydro-2H-benzo[b][1,4]oxazin-6-yloxy)butyl)piperazin-1-yl)phenoxy)propanoate hydrochloride], the results for the Ki in test [1], in test [2] and in test [3] were 2.09 nM, 185 nM and 2.67 nM, respectively. Besides, the IC50 in test [1] worked out at 5.93 nM; in test [2], 376 nM; in test [3], 4.41 nM.

In the case of `CCOC(=O)CN1C(=O)COc2ccc(OCCCCN3CCN(c4cccc(Cl)c4Cl)CC3)cc21` [Compound 28c, Ethyl 2-(6-(4-(4-(2,3-dichlorophenyl)piperazin-1-yl)butoxy)-3-oxo-2H-benzo[b][1,4]oxazin-4(3H)-yl)acetate hydrochloride], the Ki was found to be 15.5 nM in test [1], 106 nM in test [2] and 2.96 nM in test [3]. The IC50 in test [1] was found to be 49.4 nM; in test [2], 237 nM; in test [3] it was 4.45 nM.
